Literature values as cited in patent US10632442B2, “Apparatus for a mass production of monodisperse biodegradable polymer-based microspheres and a multi-channel forming device incorporatable therein” (INVENTAGE LAB, INC., priority 2016, dated 2020).

Conditions: in vivo

AUC: 217 ng·days/mL
Cmax: 5.1 ng/mL
Tmax: 7 to 10 days
T½: 35 days
SMILES: CO/N=C1\C[C@]2(C[C@@H]3C[C@@H](C/C=C(\C)C[C@@H](C)/C=C/C=C4\CO[C@@H]5[C@H](O)C(C)=C[C@@H](C(=O)O3)[C@]45O)O2)O[C@H](/C(C)=C/C(C)C)[C@H]1C [Moxidectin]
